The subject of one test is CD4+ T cells. Put plainly: ELISPOT of peptide-stimulated CD4+ T cells from patients. In kind it is cell-based, human. The settings on record: autologous targets presenting peptide. On the procedure: Given the correlation between humoral and cellular immunity observed with CT antigens such as NY-ESO-1 (Jager et al. J Exp Med. 1998 Jan. 19; 187(2):265-70) and SSX2 (Ayyoub et al. J Immunol. 2002 Feb. 15; 168(4):1717-22, Tureci et al. Cancer Res. 1996 Oct. 15; 56(20):4766-72.), these two patients were analyzed to look for the presence of T cell responses. Nine long peptides (30AA) were synthesized from the sequence of NY-CO-58 (SEQ ID NO:20) on the basis of the presence of anchor motifs for various class I molecules. Five prediction algorithms were used to map potential these potential anchor motifs which correspond to potential epitopes, resulting in the selection of the following polypeptides: 3-32 (SEQ ID NO:31), 51-80 (SEQ ID NO:35), 151-180 (SEQ ID NO:36), 271-300 (SEQ ID NO:37), 375-404 (SEQ ID NO:38), 403-432 (SEQ ID NO:33), 510-539 (SEQ ID NO:39), 633-662 (SEQ ID NO:40), and 692-721 (SEQ ID NO:34).
CD8^+ and CD4^+ T cells were then purified from peripheral blood lymphocytes (PBLs) from the two patients and were stimulated with these peptides either individually or in pools of 2-3 peptides (Gnjatic et al. J Immunol. 2003 Feb. 1; 170(3):1191-6). The stimulated CD8^+ T cells were then tested for recognition of the same stimulator peptide(s), either individually or pools in standard ELISPOT assays (Jager Proc Natl Acad Sci USA. 2000 Apr. 25; 97(9):4760-5, Gnjatic et al. Proc Natl Acad Sci USA. 2000 Sep. 26; 97(20):10917-22).
In these same patients CD4^+ T cell responses were investigated. CD4^+ T cells were stimulated with the peptides individually or in pools of 2-3 peptides as done with CD8^+ T cells. The stimulated peptides were tested in ELISPOT assays using autologous targets presenting the stimulator peptide(s). […] Recognition of control autologous targets, either unpulsed cells or cells presenting irrelevant peptide.
An additional sample of PBLs was obtained from patient UKE-16. The patient remained positive for serum NY-CO-58 specific antibody. Again, CD4^+ T cells were stimulated with peptides derived from the NY-CO-58 sequence. This time additional “minimal” 12-mer epitopes selected from within the 30-mer polypeptides using the ProPred prediction algorithm (Singh, H. and Raghava, G. P. S. (2001) ProPred: Prediction of HLA-DR binding sites. Bioinformatics, 17(12), 1236-37, Propred server available online from Drs Raghava and Singh, Bioinformatics Center, Institute of Microbial Technology, Chandigarh, India). The 12-mer peptides corresponded to amino acid 15-26 (SEQ ID NO:32) and 699-710 (SEQ ID NO:41) of NY-CO-58 (SEQ ID NO:20). Analysis of the responses was carried out by ELISPOT assay as before. Peptide 15-26 was recognized by CD4^+ T cells from patient UKE-16 and represents a minimal epitope within amino acid 3-32 (SEQ ID NO:31). This also confirmed that the T cell reactivity was specific to the peptides and not due to an irrelevant contaminant, which would be unlikely to be present within two separate batches of synthetic peptides.

The subject of test [1] is peripheral blood lymphocytes. Format: cell-based, HHD mice.
The subject of another test is splenocytes. In kind it is cell-based, HHD mice.
Test [2] has as its system sera from colon cancer patients. Description: Spot assay: reactivity of serologically defined colon cancer antigens with colon cancer patient sera. Format: binding, human. The note with it: reactive sera/sera tested; includes autologous where applicable; sera 1:200. On the procedure:
Serum samples from patients with colon cancer were screened using a modification of the plaque assay, termed a spot assay. In this method, 80×120 mm nitrocellulose membranes were precoated with a film of NZY/0.7% Agarose/2.5 mM IPTG and placed on a reservoir layer of NZY/0.7% Agarose in a 86×128 mm Omni Tray (Nalge Nunc International Corp., Naperville, Ill.). Approximately 1.0×10^5 pfU of monoclonal phage encoding individual serologically defined colon cancer antigens, in a volume of 20 μl, were mixed with 20 μl of exponentially growing E. coli XL-1 Blue MRF and spotted (0.7-μl aliquots) on the precoated nitrocellulose membranes. Membranes were incubated for 15 hours at 37° C. A total of 75 different serologically defined colon cancer antigens were spotted in duplicate per nitrocellulose membrane. The agarose film was then removed from the membrane and the filters were processed for reactivity with individual serum samples (1:200 dilution), as described in Scanlan, et al., Int. J. Cancer 76:652-658 (1998) and Scanlan, et al., Int. J. Cancer 83:456-64, (1999).

In the case of “EIYNGKLFDLLNKKAKLRVLEDGKQQVQVV (listed as Homo sapiens) [peptide 403-432, fragment of NY-CO-58, residues 403-432]”, the “CD4+ T cell response, ELISPOT” value in the test with CD4+ T cells (patient UKE-1) is reported as “responded”.
Consider KLGLEVYVT (listed as Homo sapiens), for which, in test [1], the “ex vivo ELISPOT response from PBL” value is listed as “not seen”. In addition, the “ELISPOT response after in vitro restimulation” value with splenocytes is “responses were detected”.
On to SLLALKECI (listed as Homo sapiens), for which, in test [1], the “ex vivo ELISPOT response from PBL” value was “showed a response”. In addition, the “ELISPOT response after in vitro restimulation” value in the test on splenocytes was “confirmed”.
For “CO-95 (KIAA1416): serologically defined colon cancer antigen, protein SEQ ID NO:16”, the “Reactivity of individual antigens” value in test [2] is recorded as 4/75.
Regarding NLEKSCVSV (listed as Homo sapiens), in test [1], the “ex vivo ELISPOT response from PBL” value is “not seen”. For the same substance, the “ELISPOT response after in vitro restimulation” value in the test with splenocytes was “responses were detected”.
For the substance “KHFSALRDVIKALRLAMQLEEQASRQISSK (listed as Homo sapiens) [692-721, fragment of NY-CO-58, residues 692-721]”, the “CD4+ T cell response, ELISPOT” value with CD4+ T cells (patient UKE-1) is given as “reactive”; in the test with CD4+ T cells (patient UKE-16) it was “reacted very clearly”.
Turning to “LAIKIQRSNGLI (listed as Homo sapiens) [peptide 15-26, minimal 12-mer of NY-CO-58, residues 15-26]”, the “CD4+ T cell response, ELISPOT” value in the test with CD4+ T cells (patient UKE-16) is “recognized”.
Regarding LQARLFPGL (listed as Homo sapiens), the “ex vivo ELISPOT response from PBL” value in test [1] is “not seen”. The “ELISPOT response after in vitro restimulation” value in the test with splenocytes was “responses were detected”.
For “MDSSLQARLFPGLAIKIQRSNGLIHSANVR (listed as Homo sapiens) [3-32]”, the “CD4+ T cell response, ELISPOT” value in the test with CD4+ T cells (patient UKE-1) was “reactive”; with CD4+ T cells (patient UKE-16), “reacted very clearly”.

The values above are taken from patent US7803382B2, “Method for inducing immune response to NY-CO-58” (Ludwig Institute for Cancer Research Ltd., priority 2001, dated 2010).
